Molecules are shown by their SMILES.

For data set [1], the system named is 5-HTP-induced head twitches in rats. As to the kind of experiment: 5-HTP-induced head twitch. The data set is classed as in vivo, SD rats. The conditions noted are these: mean ± S.E.M. As to the method:
SD rats (200–250 g, 8 animals/ group) were housed in the test room for at least 1 h before the experiment. […] Then, all animals were intraperitoneally injected with 0.9% saline or 5-HTP (320 mg/kg) 40 min before the test. The number of head twitches was recorded during a period of 40–70 min after intraperitoneal injection.

In data set [2] the test system is MK-801-treated rats. Put plainly: Morris water maze test, acute administration, MK-801-treated rats. Type of data set: in vivo, SD rats. The conditions noted are these: mean ± S.E.M. As to the method:
SD rats (200–250 g, 8 animals/ group) were trained continuously until all rats found the platform within 30 sec, and the training time depended on the training results. […]. Then, all animals were intraperitoneal injections of 0.9% saline or MK-801 (0.2 mg/kg, i.p.) 30 minutes before the test. The test was started and the escape latency of rats was measured during the test in which platform was not withdrawn. A trial was deemed complete as soon as the rat had located platform or when 60 s had elapsed, whichever occurred first. The swimming activity of each rat was monitored by TopScan monitoring system. At the end of each trial, the maze was cleaned. The maze was rotated by clockwise after each training day to avoid potential intramaze cues (odour trails, etc.)[38].

Data set [3] has as its system MK-801-treated rats. Put plainly: Morris water maze test, subchronic administration, MK-801-treated rats. Type of data set: in vivo, SD rats. As to the method: The MWM test was started after the last injection. Each rat was trained in 4 trials per day for 5 consecutive days. The escape latency to find the submerged escape platform in the water maze was recorded with the TopScan monitoring system. Each training session lasted for a maximum of 60 s. If the escape latency exceeded 60 s, it was recorded as 60 s and the rat was manually guided to the platform. On day 6, the platform was removed and each rat was allowed to swim freely for 60 s.

In data set [4] the test system is MK-801-induced locomotor hyperactivity in rats. As to the kind of experiment: Inhibition of MK-801-induced hyperactivity. Type of data set: in vivo, SD rats. The conditions noted are these: mean ± S.E.M. As to the method: […]. […] Animals were returned to the activity chambers after the intraperitoneal injection, and locomotor activity as quantitated as the distance travelled (mm) was recorded for 10 to 20 minutes using the TopScan monitoring system. At the end of each trial, the faecal boli were cleaned to avoid the potential influence of intramaze cues (odour trails, etc.) on the rats[36].

Data set [5] deals with MK-801-induced NOR deficit in rats. Put plainly: Novel object recognition (NOR) test. The conditions noted are these: MK-801 0.3 mg/kg i.p. day 15–28 with vehicle (model group).
Protocol: Rats were testing after the last administration. Following a 10-min habituation session on the day of testing, each rat was placed in the NOR chamber (grey PVC boxes 60*60 cm wide and 45 cm deep) and exposed to two identical objects (Left and Right) for a period of 10 min (Acquisition Trial). The objects used in this experiment were rectangular plastic cases. […] Rats were then returned to their home cage for an inter-trial interval (ITI) of 1.5 h and the entire box was cleaned. Then one was replaced with an identical familiar copy and one was replaced with a novel object. Following the ITI, rats were returned to the apparatus and allowed to explore the familiar and novel objects in the test box for a 10-min retention trial (Retention Trial). All experiments were monitored by TopScan monitoring system[39].
Data set [6] is described as follows: Body weight of rats after 28 days of dosing. The data set is classed as in vivo. The settings on record: 0.2 mg/kg for 28 days, mean ± S.E.M.
A further data set deals with plasma prolactin. Put plainly: Plasma prolactin levels in rats (ELISA). The data set is classed as in vivo. The settings on record: 0.2 mg/kg for 28 days, mean ± S.E.M. How it is done:
[…]. Plasma prolactin levels were assessed using a commercially available Prolactin ELISA (Mouse/Rat) purchased from GenWay, according to the manufacturer’s instructions. Plasma TC and triglyceride levels were assessed using a Roche automatic biochemical analyser Cobas c 311.

Take `N[C@@H](Cc1c[nH]c2ccc(O)cc12)C(=O)O` [5-HTP, reference compound]: the “number of head twitches” value in data set [1] (5-HTP 320 mg/kg i.p. with vehicle (model group)) was 52.5 ± 2.57.
Regarding `O=C1CCc2ccc(OCCCCN3CCN(c4cccc(Cl)c4Cl)CC3)cc2N1` [Aripiprazole, reference compound], in data set [1] ([…] oral 1 h before test, 5-HTP 320 mg/kg i.p., 40–70 min after injection), the “number of head twitches” value was 31.5 ± 3.12. Also, the escape latency was 21.71 ± 0.86 s with MK-801-treated rats [2] ([…] oral 1 h before test, MK-801 0.2 mg/kg i.p.) and 31.83 ± 5.00 s with MK-801-treated rats [3] ([…] oral for 28 days, MK-801 0.3 mg/kg i.p. day 15–28, mean ± S.E.M.). The molecule also came in with a distance travelled in data set [4] ([…] oral 1 h before test, MK-801 0.3 mg/kg i.p.) of 1957 ± 455.1 mm.
With `C[C@]12N[C@H](Cc3ccccc31)c1ccccc12` [MK-801, reference compound], in data set [5], the “Discrimination Index (DI)” value is on record as 0.51 ± 0.04. In addition, the escape latency with MK-801-treated rats [2] (MK-801 0.2 mg/kg i.p. with vehicle (model group)) worked out at 35.67 ± 4.05 s; in the data set on MK-801-treated rats [3] (MK-801 0.3 mg/kg i.p. day 15–28 with vehicle (model group), mean ± S.E.M.), 25.56 ± 4.36 s. This molecule returned a distance travelled in data set [4] (MK-801 0.3 mg/kg i.p. with vehicle (model group)) of 4933 ± 275.6 mm.
Consider `Cc1nc2n(c(=O)c1CCN1CCC(c3noc4cc(F)ccc34)CC1)CCCC2` [Risperidone, reference compound], for which the “number of head twitches” value in data set [1] (0.2 mg/kg oral 1 h before test, 5-HTP 320 mg/kg i.p., 40–70 min after injection) is 9 ± 1.73. The molecule further registered a body weights in data set [6] of 116.4 ± 10.51 g. Also, the escape latency in the data set on MK-801-treated rats [2] (0.2 mg/kg oral 1 h before test, MK-801 0.2 mg/kg i.p.) was determined as 20.71 ± 2.18 s; in the data set with MK-801-treated rats [3] (0.2 mg/kg oral for 28 days, MK-801 0.3 mg/kg i.p. day 15–28, mean ± S.E.M.) it was 11.81 ± 3.06 s. In the data set on plasma prolactin, this molecule returned a plasma prolactin level of 5.67 ± 0.51 ng/mL. In addition, the distance travelled in data set [4] (0.2 mg/kg oral 1 h before test, MK-801 0.3 mg/kg i.p.) was found to be 1886 ± 437.3 mm.

The values are drawn from article PMC5931996 (Scientific Reports, 2018).
